SMILES strings stand for the structures. Active and inactive are the calls of the source. No cut-off for these calls is given here.

Two compounds from ChEMBL document CHEMBL4000241, “Investigation of the anti-angiogenesis effects induced by deoxypodophyllotoxin-5-FU conjugate C069 against HUVE cells” (Bioorg Med Chem Lett, 2017) can be followed below.

Series [1] has as its system WI-38. Put plainly: Antiproliferative activity against human WI38 cells at 30 uM after 12 to 48 hrs by MTT assay. Type of series: cell-based. The following applies: wi-38, 30 µM.
In a further series the test system is Chorioallantoic membrane. Put plainly: Antiangiogenic activity in chicken fertilized egg chorioallantoic membrane assessed as reduction in branching of blood vessels after 48 hrs. Type of series: functional, tissue-based. The following applies: Gallus gallus.
Series [2] relates to HUVEC. The series can be described thus: Vascular disrupting activity in HUVEC assessed as disruption of preformed tube like structure after 6 hrs by inverted phase contrast microscopy based matrigel assay. To be noted: Homo sapiens. Type of series: functional, cell-based.
Series [3] deals with HUVEC. The series can be described thus: Antiangiogenic activity in HUVEC assessed as inhibition of formation of tubular structures after 6 hrs by inverted phase contrast microscopy based matrigel assay. It is filed as functional, cell-based. The following applies: Homo sapiens.
The subject of series [4] is WI-38. The series can be described thus: Antiproliferative activity against human WI38 cells at 20 to 100 uM after 12 to 48 hrs by MTT assay. It is filed as cell-based. The following applies: wi-38, 100 µM.
For the next series, the species on record is Homo sapiens. The series can be described thus: Inhibition of Akt phosphorylation in HUVEC after 24 hrs by Western blot analysis.
The target in series [5] is T1, Catenin beta-1 (Homo sapiens) (UniProt P35222).
T1 sequence (whole entry): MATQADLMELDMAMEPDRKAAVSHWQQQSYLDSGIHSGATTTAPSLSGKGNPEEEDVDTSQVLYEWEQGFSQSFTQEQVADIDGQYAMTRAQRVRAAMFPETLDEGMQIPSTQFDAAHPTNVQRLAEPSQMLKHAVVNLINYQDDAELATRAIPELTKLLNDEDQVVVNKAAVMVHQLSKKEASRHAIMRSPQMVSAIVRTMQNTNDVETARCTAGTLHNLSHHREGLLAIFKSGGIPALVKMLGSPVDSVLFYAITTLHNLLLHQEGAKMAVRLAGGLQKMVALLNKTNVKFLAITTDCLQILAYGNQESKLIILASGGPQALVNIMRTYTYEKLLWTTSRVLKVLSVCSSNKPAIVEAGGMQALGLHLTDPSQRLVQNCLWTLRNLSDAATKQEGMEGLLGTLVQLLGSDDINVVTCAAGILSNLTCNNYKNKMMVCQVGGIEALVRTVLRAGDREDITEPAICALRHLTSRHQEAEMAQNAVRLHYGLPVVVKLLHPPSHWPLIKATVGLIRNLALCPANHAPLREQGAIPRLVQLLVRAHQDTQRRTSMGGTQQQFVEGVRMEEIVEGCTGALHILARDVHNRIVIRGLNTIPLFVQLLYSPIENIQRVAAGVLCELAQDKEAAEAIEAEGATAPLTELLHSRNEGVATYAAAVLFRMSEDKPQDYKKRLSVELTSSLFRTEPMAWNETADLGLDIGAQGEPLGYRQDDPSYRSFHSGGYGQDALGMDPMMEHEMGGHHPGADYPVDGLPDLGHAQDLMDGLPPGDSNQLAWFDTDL
Put plainly: Inhibition of beta-catenin phosphorylation in HUVEC after 24 hrs by Western blot analysis.

The subject of series [6] is HUVEC. The series can be described thus: Antimigratory activity in HUVEC assessed as reduction in wound-healing at 0.1 to 0.3 uM after 12 hrs by inverted phase contrast microscopy. The following applies: Homo sapiens. It is filed as functional, cell-based.
Series [7] concerns HUVEC. The series can be described thus: Antiproliferative activity against HUVEC at 0.1 to 0.3 uM after 6 hrs by MTT assay. The following applies: Homo sapiens. Type of series: functional, cell-based.
Series [8] deals with HUVEC. The series can be described thus: Downregulation of MMP-9 expression in HUVEC at 0.2 to 0.5 uM after 24 hrs by Western blot analysis. Type of series: functional, cell-based. The following applies: Homo sapiens.
Series [9] relates to HUVEC. Put plainly: Downregulation of MMP-2 expression in HUVEC at 0.2 to 0.5 uM after 24 hrs by Western blot analysis. To be noted: Homo sapiens. It is filed as functional, cell-based.

As to `COc1cc([C@@H]2c3cc4c(cc3[C@@H](O[C@@H]3O[C@@H]5CO[C@@H](C)O[C@H]5[C@H](O)[C@H]3O)[C@H]3COC(=O)[C@H]23)OCO4)cc(OC)c1O` [ETOPOSIDE], the Activity entry with WI-38 [1] is reported as “Non-Toxic”.

Regarding `COc1cc([C@@H]2c3cc4c(cc3C[C@H]3COC(=O)[C@@H]32)OCO4)cc(OC)c1OC(=O)CCC(=O)NCCCCCCNC(=O)Cn1cc(F)c(=O)[nH]c1=O`, the Activity entry was “Dose-dependent effect” in the series with Chorioallantoic membrane, “Dose-dependent effect” in the series on HUVEC [2], “Dose-dependent effect” in the series with HUVEC [3] and “Non-Toxic” in the series on WI-38 [4]. Also, the inhibition result (in the series filed under Homo sapiens; in series [5]) was “Dose-dependent effect” in each case. For the same compound, the outcome in the series with HUVEC [6], in the series with HUVEC [7], in the series with HUVEC [8] and with HUVEC [9] was Active.
